Test results as given in patent US8796268B2, “Heteroaryls and uses thereof” (Millennium Pharmaceuticals, Inc., priority 2010, dated 2014).

Key:
Type in all cases: biochemical
Human PI3K alpha = molecular target: T1, Human PI3K alpha (Homo sapiens, UniProt P42336); assay: Human PI3K alpha enzyme assay (HTRF); settings: concentration not given, b1387 states 1.1 μM for PI3K α and β; for inhibition at 1.1 µM: read-out: p110 alpha Percent Inhibition
T1 construct: His (N); host or cells: SF9 insect cells (baculovirus)

Human PI3K beta = molecular target: T2, Human PI3K beta (Homo sapiens, UniProt P42338); assay: Human PI3K beta enzyme assay (HTRF); settings: concentration not given, b1387 states 1.1 μM for PI3K α and β; for inhibition at 1.1 µM: read-out: p110 beta Percent Inhibition
T2 construct: His (N); host or cells: SF9 insect cells (baculovirus)
In short: (§1)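 Compounds were mixed with 25 uM ATP, then with 3.5 uM di-C8 PI(4,5)P2 and His-tagged PI3K isoform (β 5.25 nM, δ 0.75 nM, γ 5 nM) at pH 7.00. After 30 min at room temperature, EDTA stopped the reaction and PIP3 was measured by HTRF over 1 h.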

Human PI3K delta = molecular target: T3, Human PI3K delta (Homo sapiens, UniProt O00329); assay: Human PI3K delta enzyme assay (HTRF); settings: concentration not given, b1389 states 1.0 μM for PI3K δ and γ; for inhibition at 1 µM: read-out: p110 delta Percent Inhibition
T3 construct: His (N); host or cells: SF9 insect cells (baculovirus)
In short: as §1

Human PI3K gamma = molecular target: T4, Human PI3K gamma (Homo sapiens, UniProt P48736); assay: Human PI3K gamma enzyme assay (HTRF); settings: concentration not given, b1389 states 1.0 μM for PI3K δ and γ; for inhibition at 1 µM: read-out: p110 gamma Percent Inhibition
T4 construct: His (N); host or cells: SF9 insect cells (baculovirus)
In short: as §1

T2 sequence (P42338 whole entry): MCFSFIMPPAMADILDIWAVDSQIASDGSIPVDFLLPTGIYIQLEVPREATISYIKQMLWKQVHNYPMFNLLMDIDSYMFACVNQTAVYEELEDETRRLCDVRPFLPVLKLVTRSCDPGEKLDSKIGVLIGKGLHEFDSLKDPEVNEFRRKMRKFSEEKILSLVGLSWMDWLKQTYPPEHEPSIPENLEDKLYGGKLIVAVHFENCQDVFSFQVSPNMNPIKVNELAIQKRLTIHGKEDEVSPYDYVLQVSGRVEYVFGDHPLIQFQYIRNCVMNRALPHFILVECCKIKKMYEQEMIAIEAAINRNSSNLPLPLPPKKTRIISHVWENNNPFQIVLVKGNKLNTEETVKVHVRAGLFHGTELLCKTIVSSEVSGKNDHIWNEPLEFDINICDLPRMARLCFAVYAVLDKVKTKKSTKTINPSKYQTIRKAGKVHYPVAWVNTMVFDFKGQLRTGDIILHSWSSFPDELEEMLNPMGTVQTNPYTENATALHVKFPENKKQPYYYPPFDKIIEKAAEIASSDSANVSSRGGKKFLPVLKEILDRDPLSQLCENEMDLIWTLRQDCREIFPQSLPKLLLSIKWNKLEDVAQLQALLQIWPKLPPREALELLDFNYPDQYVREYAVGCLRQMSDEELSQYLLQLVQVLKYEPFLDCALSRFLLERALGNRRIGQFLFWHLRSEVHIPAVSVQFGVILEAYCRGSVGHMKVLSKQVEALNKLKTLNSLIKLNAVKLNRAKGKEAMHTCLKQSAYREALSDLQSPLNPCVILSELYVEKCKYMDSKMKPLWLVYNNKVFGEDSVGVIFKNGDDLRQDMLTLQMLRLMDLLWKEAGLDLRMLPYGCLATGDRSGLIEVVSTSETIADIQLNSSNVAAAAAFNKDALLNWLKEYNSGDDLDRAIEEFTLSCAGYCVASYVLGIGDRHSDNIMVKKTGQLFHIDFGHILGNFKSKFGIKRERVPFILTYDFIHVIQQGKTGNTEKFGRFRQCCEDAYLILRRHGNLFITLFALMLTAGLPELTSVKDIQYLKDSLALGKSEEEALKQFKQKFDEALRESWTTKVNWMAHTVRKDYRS
T2 sequence (P27986 whole entry partner): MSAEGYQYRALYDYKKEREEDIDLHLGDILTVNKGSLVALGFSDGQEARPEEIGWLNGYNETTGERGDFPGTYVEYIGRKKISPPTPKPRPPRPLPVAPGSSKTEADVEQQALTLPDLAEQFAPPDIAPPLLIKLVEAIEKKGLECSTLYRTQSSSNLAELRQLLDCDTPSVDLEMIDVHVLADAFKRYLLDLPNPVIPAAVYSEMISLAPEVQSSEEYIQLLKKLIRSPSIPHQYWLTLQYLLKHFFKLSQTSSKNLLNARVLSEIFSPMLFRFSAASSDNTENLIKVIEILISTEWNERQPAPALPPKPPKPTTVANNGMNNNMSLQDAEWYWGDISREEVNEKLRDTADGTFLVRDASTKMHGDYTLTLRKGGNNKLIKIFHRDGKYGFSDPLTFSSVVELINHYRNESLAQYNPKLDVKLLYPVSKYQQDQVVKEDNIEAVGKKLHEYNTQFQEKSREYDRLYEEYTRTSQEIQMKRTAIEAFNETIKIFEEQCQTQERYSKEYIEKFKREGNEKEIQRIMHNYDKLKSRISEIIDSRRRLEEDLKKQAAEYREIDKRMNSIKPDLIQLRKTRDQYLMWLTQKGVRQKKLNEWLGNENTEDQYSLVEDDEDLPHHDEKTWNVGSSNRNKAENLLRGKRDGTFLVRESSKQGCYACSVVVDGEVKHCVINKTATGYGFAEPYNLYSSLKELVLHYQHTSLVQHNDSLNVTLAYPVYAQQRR
T1 sequence (P42336 whole entry): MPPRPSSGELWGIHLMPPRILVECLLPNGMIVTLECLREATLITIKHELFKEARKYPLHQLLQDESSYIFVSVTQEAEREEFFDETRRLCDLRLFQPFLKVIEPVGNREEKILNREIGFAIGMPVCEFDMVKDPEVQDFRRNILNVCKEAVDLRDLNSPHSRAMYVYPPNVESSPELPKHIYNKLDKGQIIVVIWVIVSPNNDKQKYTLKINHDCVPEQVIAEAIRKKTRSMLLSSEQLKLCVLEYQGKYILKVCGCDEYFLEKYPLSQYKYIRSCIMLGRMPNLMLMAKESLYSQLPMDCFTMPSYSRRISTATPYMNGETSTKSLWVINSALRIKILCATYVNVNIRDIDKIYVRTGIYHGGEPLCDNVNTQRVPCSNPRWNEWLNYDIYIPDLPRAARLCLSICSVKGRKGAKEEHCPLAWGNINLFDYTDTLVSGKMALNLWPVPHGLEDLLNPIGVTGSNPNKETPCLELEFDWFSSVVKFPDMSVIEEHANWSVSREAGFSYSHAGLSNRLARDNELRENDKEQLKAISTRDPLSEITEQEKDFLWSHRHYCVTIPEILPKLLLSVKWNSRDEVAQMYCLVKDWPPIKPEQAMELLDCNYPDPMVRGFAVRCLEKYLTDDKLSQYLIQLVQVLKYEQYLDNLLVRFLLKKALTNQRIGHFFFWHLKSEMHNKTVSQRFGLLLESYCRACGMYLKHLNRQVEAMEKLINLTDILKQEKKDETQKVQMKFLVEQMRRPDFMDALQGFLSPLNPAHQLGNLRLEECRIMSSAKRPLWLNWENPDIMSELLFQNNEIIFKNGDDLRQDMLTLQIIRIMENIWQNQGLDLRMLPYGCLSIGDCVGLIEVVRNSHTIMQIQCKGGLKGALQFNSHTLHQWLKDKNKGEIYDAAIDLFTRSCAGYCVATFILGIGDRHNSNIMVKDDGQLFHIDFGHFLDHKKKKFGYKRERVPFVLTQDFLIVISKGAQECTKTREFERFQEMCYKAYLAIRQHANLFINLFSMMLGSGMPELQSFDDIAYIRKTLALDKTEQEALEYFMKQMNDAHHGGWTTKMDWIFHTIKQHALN
T1 sequence (P27986 whole entry partner): as the sequence (P27986 whole entry partner) above
T3 sequence (O00329 whole entry): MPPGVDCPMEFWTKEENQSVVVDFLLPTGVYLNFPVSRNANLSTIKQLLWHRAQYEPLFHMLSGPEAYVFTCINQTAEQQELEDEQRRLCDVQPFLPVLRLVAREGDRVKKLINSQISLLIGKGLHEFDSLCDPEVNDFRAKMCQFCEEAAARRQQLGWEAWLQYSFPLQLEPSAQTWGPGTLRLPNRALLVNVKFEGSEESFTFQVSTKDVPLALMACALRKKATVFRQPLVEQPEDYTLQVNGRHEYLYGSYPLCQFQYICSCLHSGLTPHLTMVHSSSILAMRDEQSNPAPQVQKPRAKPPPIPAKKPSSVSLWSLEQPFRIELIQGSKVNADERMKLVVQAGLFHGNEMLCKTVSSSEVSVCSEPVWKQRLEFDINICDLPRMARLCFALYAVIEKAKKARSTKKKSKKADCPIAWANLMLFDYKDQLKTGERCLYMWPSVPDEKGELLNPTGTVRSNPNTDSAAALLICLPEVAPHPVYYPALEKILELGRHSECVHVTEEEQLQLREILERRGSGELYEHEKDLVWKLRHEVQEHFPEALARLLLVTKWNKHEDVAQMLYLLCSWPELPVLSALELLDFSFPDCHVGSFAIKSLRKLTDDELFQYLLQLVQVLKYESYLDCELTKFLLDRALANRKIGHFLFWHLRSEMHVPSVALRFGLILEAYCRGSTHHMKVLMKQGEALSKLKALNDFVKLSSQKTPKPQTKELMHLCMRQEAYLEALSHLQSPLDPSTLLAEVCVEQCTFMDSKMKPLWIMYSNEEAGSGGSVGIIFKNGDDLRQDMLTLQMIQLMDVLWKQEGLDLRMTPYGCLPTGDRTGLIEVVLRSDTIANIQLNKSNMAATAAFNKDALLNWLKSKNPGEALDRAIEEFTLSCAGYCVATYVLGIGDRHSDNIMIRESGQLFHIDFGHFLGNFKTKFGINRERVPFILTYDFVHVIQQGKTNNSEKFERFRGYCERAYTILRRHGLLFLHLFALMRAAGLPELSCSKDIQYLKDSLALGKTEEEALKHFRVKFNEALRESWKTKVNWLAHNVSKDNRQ
T3 sequence (P27986 whole entry partner): as the sequence (P27986 whole entry partner) above
T4 sequence (P48736 whole entry): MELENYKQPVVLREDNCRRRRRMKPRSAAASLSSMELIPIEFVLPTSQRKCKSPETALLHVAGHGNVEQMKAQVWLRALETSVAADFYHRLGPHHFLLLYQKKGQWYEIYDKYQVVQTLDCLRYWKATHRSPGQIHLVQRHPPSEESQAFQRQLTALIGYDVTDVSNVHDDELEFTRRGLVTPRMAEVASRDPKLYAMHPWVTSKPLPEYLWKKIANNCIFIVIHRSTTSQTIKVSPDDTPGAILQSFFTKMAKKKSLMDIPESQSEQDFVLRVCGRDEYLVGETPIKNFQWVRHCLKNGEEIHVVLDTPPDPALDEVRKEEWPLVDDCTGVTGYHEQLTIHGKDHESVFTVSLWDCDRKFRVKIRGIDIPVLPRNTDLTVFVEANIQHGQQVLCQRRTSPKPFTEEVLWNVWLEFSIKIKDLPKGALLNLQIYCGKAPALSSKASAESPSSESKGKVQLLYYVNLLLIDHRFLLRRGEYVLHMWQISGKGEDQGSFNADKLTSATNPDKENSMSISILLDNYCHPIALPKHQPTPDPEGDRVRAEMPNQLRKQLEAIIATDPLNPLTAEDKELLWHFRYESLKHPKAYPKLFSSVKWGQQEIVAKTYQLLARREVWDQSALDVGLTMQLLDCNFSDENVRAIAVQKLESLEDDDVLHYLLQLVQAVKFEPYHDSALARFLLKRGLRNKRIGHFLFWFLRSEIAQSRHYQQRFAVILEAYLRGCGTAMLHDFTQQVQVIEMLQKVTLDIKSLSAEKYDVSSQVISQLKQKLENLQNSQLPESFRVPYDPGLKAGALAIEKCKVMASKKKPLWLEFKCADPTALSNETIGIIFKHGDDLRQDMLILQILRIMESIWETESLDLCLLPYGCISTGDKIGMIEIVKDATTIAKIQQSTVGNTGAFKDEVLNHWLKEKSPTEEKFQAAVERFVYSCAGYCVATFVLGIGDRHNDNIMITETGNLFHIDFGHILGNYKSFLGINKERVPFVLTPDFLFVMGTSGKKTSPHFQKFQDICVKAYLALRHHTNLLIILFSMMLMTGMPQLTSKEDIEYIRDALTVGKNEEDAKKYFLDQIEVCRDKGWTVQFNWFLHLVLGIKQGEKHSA

| Compound | inhibition at 1.1 µM (Human PI3K alpha) | inhibition at 1.1 µM (Human PI3K beta) | inhibition at 1 µM (Human PI3K delta) | inhibition at 1 µM (Human PI3K gamma) | p110 alpha Percent Inhibition (Human PI3K alpha) | p110 beta Percent Inhibition (Human PI3K beta) | p110 delta Percent Inhibition (Human PI3K delta) | p110 gamma Percent Inhibition (Human PI3K gamma) |
| --- | --- | --- | --- | --- | --- | --- | --- | --- |
| OC(c1cnc2ccccc2c1)c1cc(-c2ccncc2)sc1-c1nnc[nH]1 (stereo not shown) [Compound 132] | 45% | 103% | 77% | 53% | – | – | – | – |
| COc1ccc(C(O)c2cc(-c3ccncc3)sc2-c2nnc[nH]2)cc1OC (stereo not shown) [Compound 246] | 15% | 81% | 43% | 8% | – | – | – | – |
| N#Cc1c(-c2ccncc2)sc(C(=O)O)c1Cc1ccc2ccccc2c1 [Compound 143] | 58% | 115% | 85% | 62% | – | – | – | – |
| O=C(O)c1sc(N2CCOCC2)nc1Cc1ccc2cnccc2c1 [Compound 292] | 4% | 82% | 56% | 6% | – | – | – | – |
| COc1cc(C(O)c2cc(-c3ccnc(Cl)c3)sc2-c2nnc[nH]2)c(F)cc1Cl (stereo not shown) [Compound 149] | – | – | – | – | 54% | 109% | 117% | 75% |
| OC(c1ccc(Cl)cc1Cl)c1cc(-c2ccncc2)sc1-c1nnc[nH]1 (stereo not shown) [Compound 219] | 32% | 101% | 107% | 31% | – | – | – | – |
| CN(C)C(c1ccc(Cl)cc1)c1c(C(=O)O)sc(N2CCOCC2)c1C#N (stereo not shown) [Compound 351] | 15% | 82% | 79% | 46% | – | – | – | – |
| O=C(O)c1sc(N2CCOCC2)nc1Cc1ccc2ccc(F)cc2c1 [Compound 310] | 34% | 106% | 105% | 64% | – | – | – | – |
| CC(=O)Nc1cc(-c2cc(C(c3ccc(Cl)cc3)N3CC[C@H](O)C3)c(-c3nnc[nH]3)s2)ccn1 (stereo partly shown) [Compound 164] | 100% | 107% | 112% | 44% | – | – | – | – |
| CC(C)(C)[S+]([O-])NC(c1ccc2ccccc2c1)c1c(C(=O)O)sc(N2CCOCC2)c1C#N (stereo not shown) [Compound 323] | 66% | 61% | 97% | 46% | – | – | – | – |
| OC(c1ccc2ccccc2c1)c1cc(-c2ccncc2)sc1-c1nnc[nH]1 (stereo not shown) [Compound 280] | 35% | 106% | 92% | 34% | – | – | – | – |
| Clc1ccc(Cc2nc(N3CCOCC3)sc2Cc2nnn[nH]2)cc1Cl [Compound 350, 4-(5-((1H-tetrazol-5-yl)methyl)-4-(3,4-dichlorobenzyl)thiazol-2-yl)morpholine] | 6% | 58% | 41% | 3% | – | – | – | – |
| O=C(O)c1cc(-c2sc(-c3ccncc3)nc2Cc2ccc(Cl)cc2)[nH]n1 [Compound 262, 5-(4-(4-chlorobenzyl)-2-(pyridin-4-yl)thiazol-5-yl)-1H-pyrazole-3-carboxylic acid] | 0% | 69% | 12% | 4% | – | – | – | – |
| OC(c1cc(-c2ccncc2)sc1-c1nnc[nH]1)c1cccc(F)c1F (stereo not shown) [Compound 235] | 65% | 101% | 66% | 17% | – | – | – | – |
| CC(c1ccc(Cl)c(Cl)c1)c1c(C(=O)O)sc(N2CCOCC2)c1C#N (stereo not shown) [Compound 321] | 67% | – | – | 59% | – | 73% | 86% | – |
| OC(c1cc2ccccc2cc1F)c1cc(-c2ccncc2)sc1-c1nnc[nH]1 (stereo not shown) [Compound 136] | – | 110% | 109% | 67% | 80% | – | – | – |
| CC(=O)Nc1cc(-c2cc(C(O)(C3=CCOCC3)c3ccc(Cl)cc3)c(-c3nnc[nH]3)s2)ccn1 (stereo not shown) [Compound 273] | 88% | 73% | 98% | 7% | – | – | – | – |
| C=CCC(c1ccc(Cl)c(Cl)c1)c1c(C(=O)O)sc(N2CCOCC2)c1C#N (stereo not shown) [Compound 355, 4-cyano-3-[1-(3,4-dichlorophenyl)but-3-en-1-yl]-5-(morpholin-4-yl)thiophene-2-carboxylic acid] | 44% | 100% | 105% | 53% | – | – | – | – |
| N#Cc1c(N2CCOCC2)sc(C(=O)O)c1C(N)c1ccc2ccccc2c1 (stereo not shown) [Compound 357] | 89% | 110% | 110% | 79% | – | – | – | – |

| Compound | inhibition at 1.1 µM (Human PI3K alpha) | inhibition at 1.1 µM (Human PI3K beta) | inhibition at 1 µM (Human PI3K delta) | inhibition at 1 µM (Human PI3K gamma) | p110 alpha Percent Inhibition (Human PI3K alpha) | p110 beta Percent Inhibition (Human PI3K beta) | p110 delta Percent Inhibition (Human PI3K delta) | p110 gamma Percent Inhibition (Human PI3K gamma) |
| --- | --- | --- | --- | --- | --- | --- | --- | --- |
| CN(C)CCC(c1ccc(Cl)c(Cl)c1)c1c(C(=O)O)sc(N2CCOCC2)c1C#N (stereo not shown) [Compound 331, 4-cyano-3-[1-(3,4-dichlorophenyl)-3-(dimethylamino)propyl]-5-(morpholin-4-yl)thiophene-2-carboxylic acid] | 37% | 105% | 107% | 51% | – | – | – | – |
| CC(=O)Nc1cc(-c2sc(-c3nnc[nH]3)c([S+]([O-])c3ccc(Cl)cc3)c2C#N)ccn1 (stereo not shown) [Compound 131, N-{4-[4-[(4-chlorophenyl)sulfinyl]-3-cyano-5-(4H-1,2,4-triazol-3-yl)-2-thienyl]pyridin-2-yl}acetamide] | 75% | 78% | 80% | 5% | – | – | – | – |
| OC(c1ccc(Br)o1)c1cc(-c2ccncc2)sc1-c1nnc[nH]1 (stereo not shown) [Compound 260] | 37% | 74% | 37% | 6% | – | – | – | – |
| OC(c1ccc2c(c1)OC(F)(F)O2)c1cc(-c2ccncc2)sc1-c1nnc[nH]1 (stereo not shown) [Compound 134] | 21% | 72% | 44% | 8% | – | – | – | – |
| O=C(O)c1sc(N2CCOCC2)nc1Cc1cc2ccccc2o1 [Compound 341] | 30% | 110% | 98% | 30% | – | – | – | – |
| COc1cc(C(O)c2cc(-c3ccnc(Cl)c3)sc2-c2nnc[nH]2)c(F)cc1Cl (stereo not shown) [Compound 278] | – | 98% | – | – | 23% | – | 83% | 35% |
| CC(=O)Nc1cc(-c2cc(C(N=[N+]=[N-])c3ccc(Cl)cc3)c(-c3nnc[nH]3)s2)ccn1 (stereo not shown) [Compound 211] | 111% | 111% | 106% | 13% | – | – | – | – |
| Cc1nc2cc(Cc3nc(N4CCOCC4)sc3C(=O)O)ccc2s1 [Compound 289] | 11% | 32% | 32% | 10% | – | – | – | – |
| NC(=O)c1sc(N2CCOCC2)nc1Cc1ccc2ccccc2c1 [Compound 334] | 21% | 103% | 101% | 12% | – | – | – | – |
| N#Cc1c(N2CCOCC2)sc(C(=O)O)c1Cn1cnc2ccccc2c1=O [Compound 294, 4-cyano-5-(morpholin-4-yl)-3-[(4-oxoquinazolin-3(4H)-yl)methyl]thiophene-2-carboxylic acid] | 47% | 94% | 101% | 35% | – | – | – | – |
| COc1cnc(Cl)cc1-c1cc(C(O)c2ccc(Cl)cc2)c(-c2nnc[nH]2)s1 (stereo not shown) [Compound 197] | 15% | 23% | 19% | 4% | – | – | – | – |
| CN(C)C(c1ccc(Cl)c(Cl)c1)c1c(C(=O)O)sc(N2CCOCC2)c1C#N (stereo not shown) [Compound 362, 4-cyano-3-[(3,4-dichlorophenyl)(dimethylamino)methyl]-5-(morpholin-4-yl)thiophene-2-carboxylic acid] | – | – | – | – | 80% | 116% | 104% | 44% |
| COc1ccc(C(O)c2cc(-c3ccncc3)sc2-c2nnc[nH]2)c(C)c1 (stereo not shown) [Compound 158] | 18% | 94% | 69% | 20% | – | – | – | – |
| COC(c1ccc(Cl)cc1)c1cc(-c2ccnc(NC(C)=O)c2)sc1-c1nnc[nH]1 (stereo not shown) [Compound 220] | 92% | 91% | 99% | 9% | – | – | – | – |
| CC(=O)Nc1cc(-c2cc(C(NCC3CCNC3)c3ccc(Cl)cc3)c(-c3nnc[nH]3)s2)ccn1 (stereo not shown) [Compound 234] | 60% | 100% | 104% | 10% | – | – | – | – |
| OC(c1cccc(-c2ccncc2)c1)c1cc(-c2ccncc2)sc1-c1nnc[nH]1 (stereo not shown) [Compound 258] | 18% | 86% | 47% | 13% | – | – | – | – |
| CC(C)C(c1ccc(Cl)cc1)c1nc(N2CCOCC2)sc1C(=O)O (stereo not shown) [Compound 304] | 6% | 25% | 32% | 7% | – | – | – | – |
| CC(=O)Nc1cc(-c2cc(C(c3ccc(Cl)cc3)N3CCC(CN)C3)c(-c3nnc[nH]3)s2)ccn1 (stereo not shown) [Compound 139] | 77% | 100% | 105% | 24% | – | – | – | – |
